{"source": "patent US20230340127A1", "about": "“METHODS AND COMPOSITIONS FOR CANCER TREATMENT BY INHIBITION OF FBXO44” (Sanford Burnham Prebys Medical Discovery Institute, priority 2022, published 2023)", "assay_type_in_all_cases": "cell-based, human", "key": {"[1]": {"tested_on": "chromatin associated H3K9me3 modifications in MDA-MB-231 cells", "experiment": "Immunofluorescence of chromatin associated H3K9me3 after F5446 treatment", "settings": "vehicle or F5446 for 48 hrs, IF (FIG. 10E)", "method": "Immunofluorescence (IF): IF was performed to detect chromatin associated H3K9me3 in siRNA of FBXO44 or control. Briefly, cells were grown on Laminin-coated coverslips (neuVitro no. GG-12-laminin), washed twice with cold PBS, and then fixed with 4% paraformaldehyde for 20 min at 25° C. followed by permeabilization with 0.5% Triton X-100 in PBS for 5 min. Cells were fixed with chilled methanol for 5 min at −20° C. After 3×10 min washes in PBS, cells were incubated in blocking buffer (10 mM Tris-Cl [pH 7.5], 120 mM KCl, 20 mM NaCl, 0.5 mM EDTA, 0.1% Triton X-100, 10% milk, 2% BSA) overnight at 4° C. The relevant primary antibodies diluted in blocking buffer were then added. Specifically, 1:500 dilution for anti-H3K9me3 (Abcam no. ab8898). Cells were washed 3×10 min with KCMT buffer (10 mM Tris-Cl [pH 7.5], 120 mM KCl, 20 mM NaCl, 0.5 mM EDTA, 0.1% Triton X-100) and incubated with Alexa Fluor 488-labeled anti-rabbit (Thermo Fisher Scientific no. A-21441) or Alexa Fluor 594-labeled anti-mouse (Cell Signaling Technologies no. 8890) antibodies at 1:500 dilution for 1 hr at 25° C. After 3×10 min washes with KCMT buffer, cells were stained with DAPI (Thermo Fisher Scientific no. D1306), coverslips mounted with anti-fade mounting medium (Vector Laboratories no. H-1000), and slides examined by fluorescence microscopy (Nikon Inverted TE300) or confocal microscopy (Zeiss LSM 710 NLO). […]"}, "[2]": {"tested_on": "HMECs and primary astrocytes", "experiment": "Viability of normal cells after F5446 treatment", "settings": "F5446 for 48 hrs (FIG. 9G)", "method": "To assess whether this epigenetic regulatory pathway could potentially be targeted for cancer treatment, SUV39H1 and its chemical inhibitor F5446 were used to perform experiments. IF, qRT-PCR, and growth curve experiments were performed as described in previous examples. Human mammary epithelial cells (HMECs) and primary astrocytes were also used in the experiments. HMECs (Lonza, #CC-2551) were cultured in MEGM BulletKit Medium (Lonza, #CC-3150). Primary astrocytes were cultured Astrocyte Medium (ScienCell, #1801) and cells were incubated at 37° C. in 5% CO2. All cells were incubated at 37° C. in 5% CO2. The cell cultures were authenticated by short tandem repeat (STR) analysis.\nTo establish the potential of a therapeutic index for FBXO44/SUV39H1, the role of FBXO44/SUV39H1 in RE silencing in normal cells was investigated using human mammary epithelial cells (HMECs) or primary astrocytes. HMECs and primary astrocytes were cultured and treated with F5446 as described in example 17. Growth curve, immunoblotting, IF, ChIP experiments were performed as described in previous examples."}, "[3]": {"tested_on": "cancer cell lines and patient-derived glioblastoma cultures", "experiment": "Viability of cancer cells after F5446 treatment", "settings": "F5446 for 48 hrs (FIG. 9G)", "method": "Cell lines and culture conditions: all cancer cell lines were purchased from the American Tissue Culture Collection (ATCC) and grown in recommended culture media. Specifically, MDA-MB-231, BT-549, MCF7, A549, and H446 cells were cultured in RPMI 1640 (Corning), HEK293T, HEK293FT, and HeLa cells were cultured in DMEM (Corning), MDA-MB-231-luc cells were cultured in MEM (Corning), U2OS and HCT116 cells were cultured in McCoy's 5A (Corning). The above media were supplemented with 10% fetal bovine serum (FBS), 2 mM glutamine, and 100 U/mL penicillin and streptomycin. Patient-derived glioma stem cells (GSCs) were obtained (Xie et al., 2018) and cultured in Neurobasal medium (Thermo Fisher Scientific, #11360070) supplemented with B27 without vitamin A (Thermo Fisher Scientific, #A3353501), EGF, and bFGF (20 ng/mL each; R&D Systems), sodium pyruvate (Thermo Fisher Scientific, #11360070), and GlutaMAX (Thermo Fisher Scientific, #35050061). All cells were incubated at 37° C. in 5% CO2. The cell cultures were authenticated by short tandem repeat (STR) analysis.\nTo assess whether this epigenetic regulatory pathway could potentially be targeted for cancer treatment, SUV39H1 and its chemical inhibitor F5446 were used to perform experiments. IF, qRT-PCR, and growth curve experiments were performed as described in previous examples. […]"}}}
{"smiles": "COC(=O)c1cc2c(n1S(=O)(=O)c1ccc(Cl)cc1)C(=O)C(=O)c1[nH]cc(C(=O)OCc3ccccc3)c1-2", "note": "[F5446]", "values": [{"measurement": "chromatin-associated H3K9me3", "setting": "[1]", "result": "reduced"}, {"measurement": "HMEC and astrocyte viability", "setting": "[2]", "result": "minimally affected"}, {"measurement": "survival of cancer cell lines and patient-derived glioblastoma cultures", "setting": "[3]", "result": "reduced"}]}
